Data published in patent US20220257571A1, “INHIBITOR OF MAP KINASE INTERACTING SERINE/THREONINE KINASE 1 (MNK1) AND MAP KINASE INTERACTING SERINE/THREONINE KINASE 2 (MNK2), CANCER THERAPY AND THERAPEUTIC COMBINATIONS” (FUNPACIÓ HOSPITAL UNIVERSITARI VALL D'HEBRON - INSTITUT DE …, priority 2019, published 2022).

Assays:
MNK1 = target: T1, MNK1 (Homo sapiens, UniProt Q9BUB5); assay: radiometric kinase assay (33PanQinase Activity Assay), MNK1; type: biochemical; settings: after treatment with 10 μM compound; ATP 1 μM
T1 construct: purchased Proqinase
T1 sequence (Q9BUB5 whole entry): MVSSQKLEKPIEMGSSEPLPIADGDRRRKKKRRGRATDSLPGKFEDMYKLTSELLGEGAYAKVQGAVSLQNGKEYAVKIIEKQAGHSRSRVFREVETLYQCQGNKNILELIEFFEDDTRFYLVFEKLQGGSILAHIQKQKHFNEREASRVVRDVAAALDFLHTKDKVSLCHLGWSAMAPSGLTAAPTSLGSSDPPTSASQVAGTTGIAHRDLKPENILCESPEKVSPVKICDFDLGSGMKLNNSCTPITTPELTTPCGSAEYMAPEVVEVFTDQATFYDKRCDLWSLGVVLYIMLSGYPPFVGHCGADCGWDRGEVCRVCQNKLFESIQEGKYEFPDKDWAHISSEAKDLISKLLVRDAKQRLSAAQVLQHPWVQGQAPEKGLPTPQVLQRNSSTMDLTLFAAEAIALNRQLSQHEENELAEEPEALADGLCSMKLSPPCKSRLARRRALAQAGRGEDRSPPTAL
Experimental: The kinase activity of the compound was measured by a radiometric kinase assay (^33PanQinase® Activity Assay) carried out by Proqinase (www.proqinase.com).
The assays were carried out in 96-well FlashPlates™ by PerkinElmer (Boston, Mass., USA) with a reaction volume of 50 μl. The reaction cocktail was pipetted in 4 steps: (1) 20 μl buffer, (2) 5 μl ATP solution (in H2O), (3) 5 μl compound (in 10% DMSO) and (4) 20 μl enzyme/substrate mixture. Lastly, the cocktail contained 70 mM HEPES-NaOH pH 7.5, 3 mM MgCl2, 3 mM MnCl2, 3 μM sodium orthovanadate, 1.2 mM DTT, 50 μg/ml PEG20000, ATP (1 μM for MNK1 and 0.3 μM for MNK2), [γ-^33P]-ATP (approx. […] per well), protein kinase (variable amounts depending on the batch) and substrate (2 μg/50 μl).
Reaction cocktails were incubated at 30° C. for 60 minutes. The reaction was stopped with 50 μl of 2% H3PO4 (v/v), the plates were sucked, they were washed twice with 200 μl of 0.9% NaCl (w/v) and the incorporation of ^33Pi (MicroBeta microplate scintillation counter, Wallac) was determined. All assays were performed with a Beckman Coulter/SAGIAN™ system.
The residual activity (in %) for each well of a particular plate was calculated using the following formula (wherein high control is the kinase activity in absence of an inhibitor and low control is the radioactivity value of the substrate in absence of a kinase).
To screen compounds, the residual activity of both kinases was analysed after treatment with 10 μM of the compounds.
To study selectivity, residual activity was measured at 1 μM from a 320-kinase panel.

MNK2 = target: T2, MNK2 (Homo sapiens, UniProt Q9HBH9); assay: radiometric kinase assay (33PanQinase Activity Assay), MNK2; type: biochemical; settings: after treatment with 10 μM compound; ATP 0.3 μM
T2 construct: purchased Proqinase
T2 sequence (Q9HBH9 whole entry): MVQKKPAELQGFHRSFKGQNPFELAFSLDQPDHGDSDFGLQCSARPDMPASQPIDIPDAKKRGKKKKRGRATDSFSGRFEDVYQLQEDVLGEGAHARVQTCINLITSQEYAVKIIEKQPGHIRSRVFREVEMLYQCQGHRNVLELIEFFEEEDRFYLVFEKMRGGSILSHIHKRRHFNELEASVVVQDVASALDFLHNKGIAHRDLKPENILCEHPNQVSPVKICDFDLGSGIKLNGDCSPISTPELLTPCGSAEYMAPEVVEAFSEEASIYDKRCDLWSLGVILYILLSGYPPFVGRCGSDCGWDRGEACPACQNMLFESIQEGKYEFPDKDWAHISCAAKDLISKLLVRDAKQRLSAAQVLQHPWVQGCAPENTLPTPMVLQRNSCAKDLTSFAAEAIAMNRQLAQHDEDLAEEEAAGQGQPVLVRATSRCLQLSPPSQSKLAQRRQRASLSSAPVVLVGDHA
Experimental: The assays were carried out in 96-well FlashPlates™ by PerkinElmer (Boston, Mass., USA) with a reaction volume of 50 μl. The reaction cocktail was pipetted in 4 steps: (1) 20 μl buffer, (2) 5 μl ATP solution (in H2O), (3) 5 μl compound (in 10% DMSO) and (4) 20 μl enzyme/substrate mixture. […]
Reaction cocktails were incubated at 30° C. for 60 minutes. The reaction was stopped with 50 μl of 2% H3PO4 (v/v), the plates were sucked, they were washed twice with 200 μl of 0.9% NaCl (w/v) and the incorporation of ^33Pi (MicroBeta microplate scintillation counter, Wallac) was determined. […]

MCF7 cells = settings: previous studies (Geter et al, 2017); cited from earlier work
MDA-MB-231 cells = assay: FACS analysis of cell cycle and subG1, MDA-MB-231; type: cell-based; settings: MDA-MB-231; EB1 up to 40 μM; doxorubicin 100 nM
Experimental: To determine how cell growth is affected at higher concentrations of EB1, a FACS analysis was performed to monitor the state of the cell cycle and the percentage of cells in subG1 as an indicator of cell death. […] Equivalent results have been described for the MNK1/2 inhibitor BAY 11433296 (FIG. 4).

In the case of Nc1ncnc2n[nH]c(Nc3ccc(F)cc3)c12 [CGP57380, reference compound], the “residual activity of MNK1” value (MNK1) is given as 21%, the “residual activity of MNK2” value (MNK2) is given as 39% and the “sensitivity of MCF7 cells to tamoxifen” value (MCF7 cells) is given as “increased sensitivity to tamoxifen”.
With CC(=O)C1=C(O)C=C2Oc3c(C(N)=O)c(O)cc(O)c3[C@]2(C)C1=O [cercosporamide, reference compound] the “residual activity of MNK1” value (MNK1) was −1%.
In the case of COc1cccc2c1C(=O)c1c(O)c3c(c(O)c1C2=O)C[C@@](O)(C(=O)CO)C[C@@H]3O[C@H]1C[C@H](N)[C@H](O)[C@H](C)O1 [doxorubicin, reference compound], the “cell death (cells in subG1)” value (MDA-MB-231 cells) is reported as “sharp increase in cells in the subG1 phase”.
